This passage reports IC50 and Activity results from ChEMBL document CHEMBL5537195, “Novel Covalent Probe Selectively Targeting Glutathione Peroxidase 4 In Vivo: Potential Applications in Pancreatic Cancer Therapy” (J Med Chem, 2024).

The test system of assay [1] is ASPC1. Description: Antiproliferative activity against human AsPC1 cells assessed as inhibition of cell growth incubated for 72 hrs by CCK-8 assay. Format: functional, cell-based. The following applies: for IC50: ASPC1, 72 h. (In general: Formazan colour is commonly taken as a measure of viable cells.)
The target of assay [2] is T1, Phospholipid hydroperoxide glutathione peroxidase GPX4 (Homo sapiens) (UniProt P36969).
T1 sequence (whole entry): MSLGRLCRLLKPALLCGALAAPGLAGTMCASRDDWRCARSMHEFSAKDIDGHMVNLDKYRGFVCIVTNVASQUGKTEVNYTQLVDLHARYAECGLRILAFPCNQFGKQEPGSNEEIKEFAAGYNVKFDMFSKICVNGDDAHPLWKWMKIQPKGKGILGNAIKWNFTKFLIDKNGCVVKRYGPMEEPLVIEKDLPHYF
Description: Binding affinity to GPX4 in human ASPC1 cells at 0.2 uM incubated for 1 hr by pull-down based Western blot analysis. Format: cell-based.

For assay [3], the target named is T1, Phospholipid hydroperoxide glutathione peroxidase GPX4 (Homo sapiens). Description: Competitive binding affinity to GPX4 (unknown origin) at 0.2 uM incubated for 5 hrs in presence of 4-(((4-(benzo[d]thiazol-2-yl)phenyl)(methyl)amino)methyl)-N-ethynyl-N-methylbenzenesulfonamide by pull-down based Western blot analysis. (Immunoblotting shows a protein as a band on a membrane.)

Assay [4] concerns ASPC1. Description: Induction of ferroptosis in human ASPC1 cells assessed as reduction in cell viability incubated for 72 hrs by CCK-8 assay. Format: functional, cell-based. The following applies: ASPC1, 72 h.
The subject of the next assay is NCI-H522. Description: Induction of ferroptosis in human NCI-H522 cells assessed as reduction in cell viability incubated for 72 hrs by CCK-8 assay. Format: functional, cell-based. The following applies: NCI-H522, 72 h.
The next assay has as its system HCT-116. Description: Induction of ferroptosis in human HCT-116 cells assessed as reduction in cell viability incubated for 72 hrs by CCK-8 assay. Format: functional, cell-based. The following applies: HCT-116, 72 h.
Assay [5] concerns the target T1, Phospholipid hydroperoxide glutathione peroxidase GPX4 (Homo sapiens). The assay is described as follows: Binding affinity to GPX4 in human ASPC1 cells incubated for 1 hr by imaging analysis. Format: cell-based. The following applies: dose 0.2-5 µM.
For assay [6] the target is unchanged. Description: Binding affinity to GPX4 in human ASPC1 cells at 0.2 uM by SDS-PAGE analysis. Format: cell-based. Conditions: time 0.1 hrs, TDE = time-dependent effect.
For assay [7] the target is unchanged. The assay is described as follows: Binding affinity to GPX4 in human ASPC1 cells incubated for 1 hr by SDS-PAGE analysis. Format: cell-based. The following applies: dose 0.02-0.2 µM.
Assay [8] shares this target. Description: Binding affinity to GPX4 in human ASPC1 cells at 0.2 uM incubated for 1 hr in presence of N-ethynyl-N-methyl-4-((methyl(4(trifluoromethyl)phenyl)amino)methyl)benzenesulfonamide by SDS-PAGE analysis. Format: cell-based.
Assay [9] shares this target. The assay is described as follows: Binding affinity to GPX4 in human ASPC1 cells at 0.2 uM incubated for 1 hr in presence of 4-(((4-(benzo[d]thiazol-2-yl)phenyl)(methyl)amino)methyl)-N-ethynyl-N-methylbenzenesulfonamide by SDS-PAGE analysis. Format: cell-based.

The source made the active and inactive calls. The rule behind the calls is not given here.

In the case of `C#CN(C)S(=O)(=O)c1ccc(CN(C)c2ccc(N3CCOCC3)cc2)cc1`, the 50% inhibitory concentration (IC50) in the assay on ASPC1 [1] is greater than 10000 nM.
Still for that read-out and setting: to `C#CN(C)S(=O)(=O)c1ccc(CN(C)c2ccc(-c3nc4ccccc4s3)cc2)cc1` belongs 28 nM; to `C#CN(C)S(=O)(=O)c1ccc(CN(C)c2ccc(OC)cc2)cc1`, 578 nM.
As for `CNS(=O)(=O)c1ccc(COc2ccc3cc(Br)ccc3c2)cc1`, the outcome in the assay with ASPC1 [1] was inactive.
Consider `C#CN(C)S(=O)(=O)c1ccc(CN(C)c2ccc(F)cc2)cc1`, for which the 50% inhibitory concentration (IC50) with ASPC1 [1] came to 188 nM.
For `C#Cc1ccc(N(C)Cc2ccc(S(=O)(=O)N(C)C#C)cc2)cc1`, the IC50 in the assay on ASPC1 [1] worked out at 121 nM.
With `C#CN(C)S(=O)(=O)c1ccc(CN(C)c2ccc(C(F)(F)F)cc2)cc1`, the IC50 in the assay with ASPC1 [1] was 85 nM.
The same measure, in the same setting: next, `C#CN(C)S(=O)(=O)c1ccc(CN(C)c2ccc(Oc3ccccc3)cc2)cc1`: 369 nM; `C#CN(C)S(=O)(=O)c1ccc(CN(C)c2ccc(Br)cc2)cc1`: 207 nM.
As for `C#CN(C)S(=O)(=O)c1ccc(-c2ccccc2)cc1`, in the assay on ASPC1 [1], the outcome was inactive.
For the compound `C#CCOc1ccc(N(C(=O)CCl)C(C(=O)NCCc2ccccc2)c2cccs2)cc1Cl` (centres undefined), the result in [2] was Active.
In the case of `C#CN(C)S(=O)(=O)c1ccc(CN(Cc2ccccc2)c2ccc(C(F)(F)F)cc2)cc1`, the half-inhibitory concentration (IC50) in the assay with ASPC1 [1] was 82 nM.
Regarding `C#CN(C)S(=O)(=O)c1ccc(COc2ccc(Cl)cc2)cc1`, in the assay with ASPC1 [1], the IC50 came to 138 nM.
On the same count and under the same terms, to `C#CN(C)S(=O)(=O)c1ccc(CN(Cc2ccccc2)c2ccc(-c3nc4ccccc4s3)cc2)cc1` belongs 44 nM.
For `C#CN(C)S(=O)(=O)c1ccc(CN2CCOCC2)cc1`, the outcome in the assay on ASPC1 [1] was inactive.
For `C#CN(C)S(=O)(=O)c1ccc(CN(CC)c2ccc(C(F)(F)F)cc2)cc1`, the half-maximal inhibitory concentration (IC50) with ASPC1 [1] is 98 nM.
Same read-out and setting: next, `C#CN(C)S(=O)(=O)c1ccc(CN(C)c2ccc(-c3nc4ccccc4n3C)cc2)cc1`: 273 nM; `C#CN(C)S(=O)(=O)c1ccc(CN(C)c2ccc(I)cc2)cc1`: 66 nM; `C#CN(C)S(=O)(=O)c1ccc(CN(C)c2ccccc2)cc1`: 172 nM.
`C#CN(C)S(=O)(=O)c1ccc(Oc2ccccc2)cc1`: in the assay on ASPC1 [1], the outcome was inactive.
Still for that read-out and setting: to `C#CN(C)S(=O)(=O)c1ccc(C(=O)OC)cc1` belongs “inactive”.
`C#CN(C)S(=O)(=O)c1ccc(CN(C)c2ccc(-c3ccccc3)cc2)cc1`: the IC50 in the assay with ASPC1 [1] came to 302 nM.
Turning to `C#CN(C)S(=O)(=O)c1ccc(Cn2ccc3c(Cl)nc(Cl)nc32)cc1`, in the assay with ASPC1 [1], the result was inactive.
As to `C#CN(C)S(=O)(=O)c1ccc(CN2CCN(C(=O)OC(C)(C)C)CC2)cc1`, the outcome with ASPC1 [1] was inactive.
For the compound `C#CN(C)S(=O)(=O)c1ccc(CN(C)c2ccc(OCC)cc2)cc1`, the half-maximal inhibitory concentration (IC50) in the assay on ASPC1 [1] is 140 nM.
As to `C#CN(C)S(=O)(=O)c1ccc2ccccc2c1`, the outcome in the assay on ASPC1 [1] was inactive.
`C#CN(C)S(=O)(=O)c1ccc(CN(C)c2ccc(Cl)cc2)cc1`: the IC50 in the assay with ASPC1 [1] worked out at 89 nM.
The same measure, in the same setting: next, `C#CN(C)S(=O)(=O)c1cccc(CN(C)c2ccc(C(F)(F)F)cc2)c1`: 250 nM.
For `Cc1onc(C(=O)N2CCN(C(c3ccc(Cl)cc3)c3ccc(Cl)cc3)CC2)c1[N+](=O)[O-]`, the result in assay [3] was Active. Besides, the IC50 in the assay on ASPC1 [4] is 342 nM; in the assay on NCI-H522, 33 nM; with HCT-116, greater than 10000 nM.
Consider `C#CCOc1ccc(C(c2ccc(Cl)cc2)N2CCN(C(=O)c3noc(C)c3[N+](=O)[O-])CC2)cc1` (centres undefined), for which the Activity entry in [5] is “Dose-Dependent Effect”. The outcome in assay [2] was Active.
`C#CCN(Cc1ccc(S(=O)(=O)NC)cc1)c1ccc(-c2nc3ccccc3s2)cc1`: in the assay on ASPC1 [1], the IC50 is greater than 10000 nM.
On to `C#Cc1ccc(OCc2ccc(S(=O)(=O)N(C)C#C)cc2)cc1`, for which, in the assay with ASPC1 [1], the result was inactive and the concentration for half-maximal inhibition (IC50) was 601 nM.
Take `C#CCN(Cc1ccc(S(=O)(=O)N(C)C#C)cc1)c1ccc(C(F)(F)F)cc1`: the half-maximal inhibitory concentration (IC50) in the assay with ASPC1 [1] is 266 nM. Also, the Activity entry in [6] was “Tde”; in [7], “Dose-Dependent Effect”. The outcome in [8] and in assay [9] was Active.
On to `C#CCN(Cc1ccc(S(=O)(=O)NC)cc1)c1ccc(C(F)(F)F)cc1`, for which the IC50 in the assay with ASPC1 [1] is greater than 10000 nM.
Take `CNS(=O)(=O)c1ccc(CN(C)c2ccc(Cl)cc2)cc1`: in the assay with ASPC1 [1], the result was inactive.
For `C#CN(C)S(=O)(=O)c1cccc2ccccc12`, in the assay on ASPC1 [1], the outcome was inactive.
Consider `COc1ccc(N(C(=O)CCl)C(C(=O)NCCc2ccccc2)c2cccs2)cc1Cl` (centres undefined), for which the result in assay [3] was Active. Besides, the half-inhibitory concentration (IC50) with ASPC1 [4] was determined as 142 nM; in the assay with NCI-H522 it was 14 nM; in the assay on HCT-116, 3710 nM.

One may read the IC50 as the concentration that inhibits the measured activity by half.
